Data published in ChEMBL document CHEMBL5465560, “Selectivity Literature for EUbOPEN Chemogenomic Library” (2024).

How the values were obtained:
[1] = target: T1, Calcium/calmodulin-dependent protein kinase type IV (Homo sapiens) (UniProt Q16566); test: Selectivity interaction (KinomeScan (DiscoverX)) EUB0000229b CAMK4; conditions: at 10 µM
T1 sequence (whole entry): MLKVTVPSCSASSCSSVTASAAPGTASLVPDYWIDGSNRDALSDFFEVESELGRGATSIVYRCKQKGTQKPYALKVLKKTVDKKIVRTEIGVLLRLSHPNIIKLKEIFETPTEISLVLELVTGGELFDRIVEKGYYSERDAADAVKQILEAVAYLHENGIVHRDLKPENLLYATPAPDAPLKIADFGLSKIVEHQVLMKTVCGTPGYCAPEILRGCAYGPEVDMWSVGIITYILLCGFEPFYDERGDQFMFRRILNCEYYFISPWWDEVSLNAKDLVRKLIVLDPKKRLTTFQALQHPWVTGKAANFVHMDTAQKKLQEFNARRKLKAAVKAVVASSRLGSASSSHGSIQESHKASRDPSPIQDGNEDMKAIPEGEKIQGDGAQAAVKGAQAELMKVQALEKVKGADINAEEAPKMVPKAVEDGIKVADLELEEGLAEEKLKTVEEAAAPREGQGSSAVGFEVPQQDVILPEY

[2] = target: T2, Serine/threonine-protein kinase TAO1 (Homo sapiens) (UniProt Q7L7X3); test: Selectivity interaction (Kinase panel (KiNativ target engagement assay in Jurkat cells)) EUB0001635a TAOK1; assay type: cell-based; conditions: Selectivity number of off-targets 0.0, Selectivity number of targets 233.0, Source Knowledge https://www.sciencedirect.com/science/article/pii/S2451945619300674?via%3Dihub, at 1 µM
T2 sequence (whole entry): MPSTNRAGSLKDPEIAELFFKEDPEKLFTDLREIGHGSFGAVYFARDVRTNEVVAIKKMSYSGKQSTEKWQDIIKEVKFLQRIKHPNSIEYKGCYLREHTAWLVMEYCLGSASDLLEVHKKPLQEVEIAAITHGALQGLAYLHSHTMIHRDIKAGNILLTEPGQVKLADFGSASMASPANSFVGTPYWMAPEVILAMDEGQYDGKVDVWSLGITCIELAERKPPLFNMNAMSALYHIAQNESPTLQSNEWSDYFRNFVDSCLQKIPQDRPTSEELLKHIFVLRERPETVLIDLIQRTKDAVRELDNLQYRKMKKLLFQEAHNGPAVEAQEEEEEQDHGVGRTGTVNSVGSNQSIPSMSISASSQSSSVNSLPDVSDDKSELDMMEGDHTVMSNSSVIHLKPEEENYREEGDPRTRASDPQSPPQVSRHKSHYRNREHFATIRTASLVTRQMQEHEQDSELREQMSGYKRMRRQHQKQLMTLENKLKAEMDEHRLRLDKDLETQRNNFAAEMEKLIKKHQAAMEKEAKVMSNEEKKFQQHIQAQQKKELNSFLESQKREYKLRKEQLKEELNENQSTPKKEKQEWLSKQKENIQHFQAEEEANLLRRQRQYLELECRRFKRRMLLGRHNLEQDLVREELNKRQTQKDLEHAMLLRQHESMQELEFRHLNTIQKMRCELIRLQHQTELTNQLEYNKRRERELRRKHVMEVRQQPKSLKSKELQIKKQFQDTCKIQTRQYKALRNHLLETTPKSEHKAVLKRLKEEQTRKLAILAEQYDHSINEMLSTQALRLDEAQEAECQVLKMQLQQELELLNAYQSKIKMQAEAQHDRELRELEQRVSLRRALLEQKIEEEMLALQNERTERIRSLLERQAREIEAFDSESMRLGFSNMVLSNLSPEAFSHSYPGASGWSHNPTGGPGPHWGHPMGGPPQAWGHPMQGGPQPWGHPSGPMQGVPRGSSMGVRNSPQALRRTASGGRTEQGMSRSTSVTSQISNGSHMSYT

[3] = target: Serine/threonine-protein kinase Nek7 (Homo sapiens) (UniProt Q8TDX7); test: Selectivity interaction (KinomeScan (DiscoverX)) EUB0000045b NEK7
Sequence of Serine/threonine-protein kinase Nek7 (Homo sapiens) (Q8TDX7 whole entry, looked up): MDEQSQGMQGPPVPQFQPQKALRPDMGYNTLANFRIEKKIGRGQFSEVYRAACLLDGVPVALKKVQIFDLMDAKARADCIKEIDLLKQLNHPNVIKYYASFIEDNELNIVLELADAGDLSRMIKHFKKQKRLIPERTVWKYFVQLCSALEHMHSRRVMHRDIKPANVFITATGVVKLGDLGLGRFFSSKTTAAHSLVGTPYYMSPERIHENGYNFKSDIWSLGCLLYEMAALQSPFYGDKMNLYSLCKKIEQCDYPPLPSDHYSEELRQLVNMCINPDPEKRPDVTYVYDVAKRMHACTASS

[4] = target: Glycogen synthase kinase-3 beta (Homo sapiens, UniProt P49841); test: Selectivity interaction (ActivX KiNativ screen (ex vivo kinase selectivity in human PBMCs)) EUB0001619a GSK3B; assay type: cell-based; conditions: PBMC, at 1 µM
Sequence of Glycogen synthase kinase-3 beta (P49841 whole entry, looked up, the tested form may be a part): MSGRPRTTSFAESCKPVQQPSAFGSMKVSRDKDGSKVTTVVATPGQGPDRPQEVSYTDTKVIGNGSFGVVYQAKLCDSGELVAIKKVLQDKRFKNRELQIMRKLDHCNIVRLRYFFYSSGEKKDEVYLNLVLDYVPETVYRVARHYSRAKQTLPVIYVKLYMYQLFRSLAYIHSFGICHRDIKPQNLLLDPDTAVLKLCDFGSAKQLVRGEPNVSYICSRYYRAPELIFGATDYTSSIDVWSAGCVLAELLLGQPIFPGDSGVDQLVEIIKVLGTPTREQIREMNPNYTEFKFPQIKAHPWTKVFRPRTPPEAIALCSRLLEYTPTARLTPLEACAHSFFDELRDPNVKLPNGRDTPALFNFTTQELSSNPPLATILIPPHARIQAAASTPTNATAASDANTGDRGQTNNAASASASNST

[5] = target: T3, Discoidin domain-containing receptor 2 (Homo sapiens) (UniProt Q16832); test: Selectivity interaction (KinomeScan (DiscoverX)) EUB0000655a DDR2; conditions: at 10 µM
T3 sequence (whole entry): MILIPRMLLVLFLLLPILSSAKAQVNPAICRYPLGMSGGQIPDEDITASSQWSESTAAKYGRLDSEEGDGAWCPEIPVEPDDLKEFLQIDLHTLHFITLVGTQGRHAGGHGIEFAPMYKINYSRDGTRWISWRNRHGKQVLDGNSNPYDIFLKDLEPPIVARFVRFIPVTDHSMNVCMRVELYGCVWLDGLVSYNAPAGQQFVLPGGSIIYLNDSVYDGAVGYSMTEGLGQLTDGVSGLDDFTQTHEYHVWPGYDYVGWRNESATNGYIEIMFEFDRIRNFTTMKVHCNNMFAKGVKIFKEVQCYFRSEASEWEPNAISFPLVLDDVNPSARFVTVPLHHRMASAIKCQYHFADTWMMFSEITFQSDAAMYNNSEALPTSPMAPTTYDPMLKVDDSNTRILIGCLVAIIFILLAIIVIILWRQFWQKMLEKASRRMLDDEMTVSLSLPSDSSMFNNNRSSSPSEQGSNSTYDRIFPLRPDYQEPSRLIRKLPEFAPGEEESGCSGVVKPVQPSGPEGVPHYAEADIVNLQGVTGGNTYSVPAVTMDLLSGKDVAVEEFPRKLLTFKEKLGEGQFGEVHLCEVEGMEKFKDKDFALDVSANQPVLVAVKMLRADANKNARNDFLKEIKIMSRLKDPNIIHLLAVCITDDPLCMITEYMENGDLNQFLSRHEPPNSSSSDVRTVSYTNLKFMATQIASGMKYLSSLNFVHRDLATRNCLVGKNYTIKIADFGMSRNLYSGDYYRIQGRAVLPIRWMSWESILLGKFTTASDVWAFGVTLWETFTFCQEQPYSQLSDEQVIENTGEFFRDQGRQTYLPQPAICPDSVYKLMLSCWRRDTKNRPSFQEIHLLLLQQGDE

`COc1cc(N(C)c2ccnc3ccc(C(F)(F)F)cc23)cc(OC)c1OC` showed a % binding [1] of 98%.

Work on `C=CC(=O)Nc1ccc(C(=O)Nc2[nH]nc3c2CN(C(=O)N[C@H](CN(C)C)c2ccccc2)C3(C)C)cc1` yielded a % of engagement [2] of -0.7%.

Molecule `C=CC(=O)Nc1cc(-n2c(=O)ccc3cnc4ccc(-c5ccc(NS(C)(=O)=O)cc5)cc4c32)ccc1C` has a % of control ([3]; at 1 µM) of 100% and a % of control ([3]; at 10 µM) of 71%.

`N#Cc1cccc(-c2c[nH]c3ncnc(N4CCOCC4)c23)c1` showed a % of inhibition [4] of 7%.

`CN(C)CCOc1ccc(-c2nc(-c3ccncc3)c(-c3ccc4c(c3)CC/C4=N\O)[nH]2)cc1` showed a % of control [5] of 67%.
